Measurements taken from PubChem BioAssay (NCI).
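All cell lines were grown in 96-well plates and treated with compound for 48 hours. TGI is the concentration that stops growth completely.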 *1 amine or outer side, *2 acyl side, *3 side chain or, on linkers, in order; H or OH if unused. Where a SMILES comes first, the peptide text is derived from it. Bridges are numbered along the chain shown (N, C = ends). [ ]: non-standard residue; d: D form. The star is where a group is joined. X34 = O=C(C(CCCCNO[*:3])N[*:1])[*:2]; Fmoc = O=C(OCC1c2ccccc2-c2ccccc21)*

Columns and labels:
Experiment in all cases: inhibition of tumour cell growth, NCI panel, 48 h
NCI-H460 lung = tested on: NCI-H460 lung
HOP-92 NSCLC = tested on: HOP-92 NSCLC
DU-145 prostate = tested on: DU-145 prostate
MDA-MB-435 = tested on: MDA-MB-435
BT-549 breast = tested on: BT-549 breast
SNB-75 CNS = tested on: SNB-75 CNS
RXF 393 renal = tested on: RXF 393 renal
SN12C renal = tested on: SN12C renal
SK-MEL-2 melanoma = tested on: SK-MEL-2 melanoma
COLO 205 colon = tested on: COLO 205 colon
SF-295 CNS = tested on: SF-295 CNS
CCRF-CEM leukemia = tested on: CCRF-CEM leukemia
TK-10 renal = tested on: TK-10 renal
K-562 leukemia = tested on: K-562 leukemia
ACHN renal = tested on: ACHN renal
OVCAR-3 ovarian = tested on: OVCAR-3 ovarian
CAKI-1 renal = tested on: CAKI-1 renal

SMILES | TGI (NCI-H460 lung) [µM] | TGI (HOP-92 NSCLC) [µM] | TGI (DU-145 prostate) [µM] | TGI (MDA-MB-435) [µM] | TGI (BT-549 breast) [µM] | TGI (SNB-75 CNS) [µM] | TGI (RXF 393 renal) [µM] | TGI (SN12C renal) [µM] | TGI (SK-MEL-2 melanoma) [µM] | TGI (COLO 205 colon) [µM] | TGI (SF-295 CNS) [µM] | TGI (CCRF-CEM leukemia) [µM] | TGI (TK-10 renal) [µM] | TGI (K-562 leukemia) [µM] | TGI (ACHN renal) [µM] | TGI (OVCAR-3 ovarian) [µM] | TGI (CAKI-1 renal) [µM]
NC(=O)CNC(=O)C1CCCN1C(=O)C1CCCCNOC(=O)CCC(NC(=O)OCC2c3ccccc3-c3ccccc32)C(=O)NC(Cc2c[nH]c3ccccc23)C(=O)N1 (centres undefined) (Fmoc-EW[X34]PG-NH2; ester 1-3; configuration not given here) | > 100 | > 100 | > 100 | > 100 | > 100 | > 100 | > 100 | > 100 | > 100 | > 100 | > 100 | > 100 | > 100 | > 100 | > 100 | > 100 | 
CC(=O)OCC(C)(COC(C)=O)N1C(=O)C2C3c4ccccc4C(c4ccccc43)C2C1=O (centres undefined) | > 100 | > 100 | > 100 | > 100 | > 100 | > 100 | > 100 |  |  | > 100 | > 100 | > 100 | > 100 | > 100 | > 100 | > 100 | > 100
CCN(CC)Cc1ccc(C(=S)Nc2ccc(C)cc2)s1 | 30.8 |  | 56.7 | 26.5 | 40.2 |  |  |  | 30.2 | 31.7 | 28.3 | 30.8 |  | 26.4 | 39 | 70.9 | 29.6
C=C1C(=O)OC2C3C(=C)[C@@H](OC(C)=O)CC3C(C)=CC(OC(=O)C(C)(OC(C)=O)C(C)OC(C)=O)[C@@H]12 (some centres undefined) | 60.4 |  | 30.5 | 31.2 | 33 | 37.1 | 31.7 | 29.5 | 27.4 | 28.2 | > 100 | 12.3 | 27.9 | 32.6 | 27 | 26.7 | 23.2
CC1=NN(c2nc(N)nc(C/C(N)=N/O)n2)C(C)(C)C1 | > 100 | > 100 | > 100 | > 100 | > 100 | > 100 |  | > 100 |  | > 100 | > 100 | > 100 | > 100 | > 100 | > 100 | > 100 | > 100
CN(C)c1ccc(C2CC(c3ccc4ccccc4c3O)=NN2c2ccc([N+](=O)[O-])cc2[N+](=O)[O-])cc1 (centres undefined) | > 100 | > 100 | > 100 | 34.6 | > 100 | > 100 | > 100 | > 100 | > 100 | > 100 | > 100 | 94.3 | > 100 |  | > 100 | > 100 | > 100
CCN(CC)C(=S)SC(C(=O)Nc1nnc(-c2ccccc2)o1)c1ccccc1 (centres undefined) | 31.6 |  | 57.8 | 34.8 | 35 | > 100 | 39.8 | 32.3 | 46.7 | 84.4 | > 100 |  | > 100 | > 100 | 57.7 | 41.8 | 50
Nc1ccc(C23CC4CC(C2)CC(c2ccc(N)cc2)(C4)C3)cc1 | > 100 | > 100 | > 100 | > 100 | > 100 |  |  | 59.5 | > 100 | 52.5 |  | 29.7 | > 100 | 36.8 | > 100 | > 100 | > 100
Cn1c2ccccc2c(=O)c2cccc(C(=O)NCC(=O)O)c21 | > 100 |  | > 100 | > 100 | > 100 | > 100 |  | > 100 | > 100 | > 100 | > 100 |  | > 100 | > 100 | > 100 | > 100 | 
OC(c1ccc2c(c1)OCO2)c1ccc2c(c1)OCO2 | > 100 | > 100 | > 100 | > 100 | > 100 | > 100 |  | > 100 | > 100 | > 100 | > 100 | > 100 | > 100 | > 100 | > 100 | > 100 | > 100
O=C(NC(Cc1cnc[nH]1)C(=O)N1CCCC1)C1CCCC1 (centres undefined) | > 100 | > 100 | > 100 | > 100 | > 100 | > 100 | > 100 | > 100 |  | > 100 | > 100 | > 100 | > 100 | > 100 | > 100 | > 100 | > 100
O=C1OC(C2(O)OC(=O)c3ccccc32)c2ccccc21 (centres undefined) | > 100 | > 100 | > 100 | > 100 | > 100 | > 100 | > 100 | > 100 | > 100 | > 100 | > 100 |  | > 100 |  | > 100 | > 100 | > 100
CCOC(=O)c1cc(Br)c(-c2cc(C)no2)[nH]1 | 55 | > 100 | 73.8 | 38.8 | > 100 | > 100 | > 100 | > 100 | > 100 | 34.8 | > 100 |  | > 100 |  | > 100 | 95.1 | 
CN1C(=O)C(O)CC1c1ccccc1C(F)(F)F (centres undefined) | > 100 | > 100 | > 100 | > 100 | > 100 | > 100 | > 100 | > 100 | > 100 | > 100 | > 100 | > 100 |  |  | > 100 | > 100 | > 100
COc1cc2c(cc1OC)C(=O)C1(C2)[C@H](c2ccccc2)C2C(=O)c3cc(OC)c(OC)cc3C2[C@H]1c1ccccc1 (some centres undefined) | > 100 |  | > 100 | > 100 | > 100 | > 100 | > 100 | > 100 |  | > 100 | > 100 | > 100 | > 100 | > 100 | > 100 | > 100 | 0.648
CSC1=NNC(SC)=NN1 | 0.385 | 0.316 | 0.345 | 0.321 | 0.348 |  |  | 0.322 | 0.281 | 0.413 | 0.34 | > 1 | 0.357 | 0.308 | 0.304 | 0.359 | 0.311
CC(=O)OCC1OC(O[C@@H]2C[C@H]3C(C)(C)[C@@H](OC(C)=O)CC[C@]3(C)[C@H]3CC[C@]45C[C@]4(CC[C@H]5[C@@H](C)C[C@@H](O)[C@H](O)C(C)(C)F)[C@@]32C)C(O)C(O)C1O (some centres undefined) | > 100 | 3.71 | > 100 | 31.6 | 3.4 |  | > 100 | 3.23 |  | 3.38 | > 100 | 3.57 | > 100 |  | > 100 | > 100 | > 100
CC1CN(c2cc3c(cc2F)c(=O)c(C(=O)O)cn3-c2ccc(F)cn2)CC(C)N1 (centres undefined) | > 100 | > 100 | > 100 | > 100 | > 100 | > 100 | > 100 | > 100 |  | > 100 | > 100 | > 100 | > 100 | > 100 |  | > 100 | > 100
ONC1=Nc2ccccc2C(=S)N2CSCC12 (centres undefined) | 42.3 |  | > 100 | 48.1 | > 100 | > 100 | > 100 | > 100 | > 100 | > 100 | > 100 | > 100 | > 100 | > 100 | > 100 | > 100 | > 100
O=C1c2ccccc2C2C1C(c1ccccc1)C1(Cc3ccccc3C1=O)C2c1ccccc1 (centres undefined) | > 100 | > 100 | > 100 | > 100 | > 100 | > 100 | > 100 | > 100 | > 100 | > 100 | > 100 | > 100 | > 100 | > 100 | > 100 | > 100 | 
CSc1nc2c(c(N3CCOCC3)n1)C(O)n1c(nc3ccccc31)S2 (centres undefined) | > 100 | > 100 | > 100 | > 100 | > 100 | 81.9 | > 100 | > 100 | > 100 |  | > 100 | > 100 | > 100 |  | > 100 | > 100 | > 100
CCOC(OCC)N1C(=O)C2(C(OCC)OCC)CC3C(OC(=O)N3N)c3cccc1c32 (centres undefined) | > 100 |  | > 100 | > 100 | > 100 |  | > 100 | > 100 |  | > 100 | > 100 | > 100 | > 100 |  | > 100 | > 100 | > 100
CC(C)(C)OC(=O)NCCCC(=O)NC1(c2cc3ccccc3s2)CCCCC1 | 40.1 | 37.6 | > 100 | 33.1 | 32.7 | 27.7 | 44.1 | 35.9 |  | 29 | 34 | 28.4 | 97.2 | 51.4 | 41 | 39.2 | 93.1
COC(=O)C1Cc2ccc3c(c2C1=O)CCCC3 (centres undefined) | > 100 |  | > 100 | > 100 | > 100 | > 100 |  | > 100 | > 100 | > 100 | > 100 | > 100 | > 100 | > 100 | > 100 | > 100 | > 100
COc1ccc(NC(C)=O)c(C(O)CCNC(C)=O)c1 (centres undefined) | > 100 | > 100 | > 100 | > 100 | > 100 | > 100 | > 100 | > 100 | > 100 | > 100 | > 100 | > 100 | > 100 |  | > 100 | > 100 | > 100
CC(=O)O[C@@]12CO[C@@H]1C[C@@H](O)[C@@]1(C)C(=O)[C@H](O)C3=C(C)[C@@H](OC(=O)[C@H](O)[C@@H](NC(=O)c4ccccc4)c4ccccc4)C[C@@](O)([C@@H](OC(=O)c4ccccc4)C12)C3(C)C (some centres undefined) | 25.1 |  | > 100 |  | > 100 | 0.0815 | 35.4 | > 100 | 0.887 | 0.176 | 8.52 | > 67.5 | > 72.5 | > 100 | 57 |  | > 100
COc1ccc(N=NC(=Nc2ccc(Cl)cc2)c2ccc(N(CCC#N)CCC#N)cc2)cc1 | > 100 | 93 | > 100 | > 100 | 87.3 | > 100 | > 100 | > 100 | 14.5 | > 100 | > 100 |  | > 100 | > 100 | > 100 | > 100 | > 100
O=C1NC(N2CCCCC2)=N/C1=C\c1ccc(Cl)cc1 |  | 85.5 | > 100 | > 100 | > 100 |  | > 100 | > 100 | > 100 | > 100 | > 100 | > 100 | > 100 |  | > 100 | > 100 | > 100
O=C(CCc1ccccc1)n1cccc1CO | > 100 |  | > 100 | > 100 | > 100 | > 100 | > 100 | > 100 | > 100 | > 100 | > 100 | > 100 | > 100 | > 100 | > 100 | > 100 | > 100
